Tested on: vancomycin-resistant enterococcus (VRE VanA)
Assay: In vitro assay of antimicrobial activity: MIC by the microdilution method using cation adjusted Mueller-Hinton broth
Format: cell-based
Description: In Vitro Assay of Antimicrobial Activity
For several compounds of the invention, minimal inhibitory concentration (MIC) was determined by the microdilution method using cation adjusted Mueller-Hinton broth well known in the art.

[1] = E. faecalis SR7914 (VRE: Van A)

Structure (SMILES)	minimal inhibitory concentration (MIC) [1]	minimal inhibitory concentration (MIC) (E. faecium SR7917 (VRE: Van A))
CNC(CC(C)C)C(=O)NC1C(=O)N[C@@H](CC(N)=O)C(=O)N[C@H]2C(=O)N[C@H]3C(=O)N[C@H](C(=O)N[C@@H](C(=O)O)c4cc(O)cc(O)c4-c4cc3ccc4O)C(O)c3ccc(c(Cl)c3)Oc3cc2cc(c3OC2OC(CO)[C@H](O)C(O)[C@H]2O[C@@H]2CC(C)(NCc3cccc(NC(=O)c4ccc(C)c(OCc5ccccc5)c4[N+](=O)[O-])c3)[C@@H](O)C(C)O2)Oc2ccc(cc2Cl)[C@H]1O (stereo partly drawn) [Compound 10]	2	2
CNC(CC(C)C)C(=O)NC1C(=O)N[C@@H](CC(N)=O)C(=O)N[C@H]2C(=O)N[C@H]3C(=O)N[C@H](C(=O)N[C@@H](C(=O)O)c4cc(O)cc(O)c4-c4cc3ccc4O)C(O)c3ccc(c(Cl)c3)Oc3cc2cc(c3OC2OC(CO)[C@H](O)C(O)[C@H]2O[C@@H]2CC(C)(NCc3ccc(OCCCNC(=O)c4ccc(C)c(OCc5ccccc5)c4[N+](=O)[O-])cc3)[C@@H](O)C(C)O2)Oc2ccc(cc2Cl)[C@H]1O (stereo partly drawn) [Compound 16]	4	4
CN[C@H](CC(C)C)C(=O)N[C@H]1C(=O)N[C@@H](CC(N)=O)C(=O)N[C@H]2C(=O)N[C@H]3C(=O)N[C@H](C(=O)N[C@H](C(=O)O)c4cc(O)cc(O)c4-c4cc3ccc4O)[C@H](O)c3ccc(c(Cl)c3)Oc3cc2cc(c3O[C@@H]2O[C@H](CO)[C@@H](O)[C@H](O)[C@H]2O[C@H]2C[C@](C)(N)[C@H](O)[C@H](C)O2)Oc2ccc(cc2Cl)[C@H]1O [VCM, vancomycin, reference compound]	>64	>64
